Experimental findings from US8937065B2, “Compositions and methods for modulating a kinase” (Clevexel Pharma, priority 2011, dated 2015) are described below.

By solubility is commonly meant how much of the substance goes into solution per volume. Higher therefore signals much dissolved substance. What is called IC50 is the concentration that gives 50% inhibition.

Converted amounts (≈) assume the structure as drawn.

Data set [1] in a line: physchem. The following applies: pH 7.4, aqueous buffer, thermodynamic from solid. How it is done: The test concentration was 100 μM (0% of DMSO for test compounds, 1% of DMSO for reference compounds). The test system was a 100 mM phosphate buffer (pH 7.4). Sample size was duplicates (n=2) and the bioanalytical method was LC-UV (Agilent-1200). Mobile phase A: H2O-1% TFA, B: MeOH-1% TFA; column Boston Symmetrix ODS-H (2.1×50 mm, 5 μm); LC conditions 0.4 mL/Min.
Assay Procedure • 1. For reference compounds: • Add 8 μL of 10 mM DMSO stock solution into 792 μL of 100 mM phosphate buffer (n=2). Final conc.=100 μM (1% of DMSO)
For test compounds: • Add 8 μL of 10 mM DMSO stock solution into the tubes (n=2). • Dry the samples under nitrogen. • Add 800 μL of 100 mM phosphate buffer into the tubes. Final conc.=100 μM (0% of DMSO) • 2. Sample tubes are shaken for 1 hour (1000 rpm) at room temperature and 37° C. • 3. Samples are centrifuged (10 min-12000 rpm) to precipitate un-dissolved particles. • 4. Supernatants are transferred to new tubes • 5. Concentrations of the supernatants after centrifugation are determined by LC-UV detection.

Data set [2] has as its target T1, JAK3 (Homo sapiens, UniProt P52333).
T1 construct: purchased Invitrogen, Madison, Wis
T1 sequence (P52333 1-1124): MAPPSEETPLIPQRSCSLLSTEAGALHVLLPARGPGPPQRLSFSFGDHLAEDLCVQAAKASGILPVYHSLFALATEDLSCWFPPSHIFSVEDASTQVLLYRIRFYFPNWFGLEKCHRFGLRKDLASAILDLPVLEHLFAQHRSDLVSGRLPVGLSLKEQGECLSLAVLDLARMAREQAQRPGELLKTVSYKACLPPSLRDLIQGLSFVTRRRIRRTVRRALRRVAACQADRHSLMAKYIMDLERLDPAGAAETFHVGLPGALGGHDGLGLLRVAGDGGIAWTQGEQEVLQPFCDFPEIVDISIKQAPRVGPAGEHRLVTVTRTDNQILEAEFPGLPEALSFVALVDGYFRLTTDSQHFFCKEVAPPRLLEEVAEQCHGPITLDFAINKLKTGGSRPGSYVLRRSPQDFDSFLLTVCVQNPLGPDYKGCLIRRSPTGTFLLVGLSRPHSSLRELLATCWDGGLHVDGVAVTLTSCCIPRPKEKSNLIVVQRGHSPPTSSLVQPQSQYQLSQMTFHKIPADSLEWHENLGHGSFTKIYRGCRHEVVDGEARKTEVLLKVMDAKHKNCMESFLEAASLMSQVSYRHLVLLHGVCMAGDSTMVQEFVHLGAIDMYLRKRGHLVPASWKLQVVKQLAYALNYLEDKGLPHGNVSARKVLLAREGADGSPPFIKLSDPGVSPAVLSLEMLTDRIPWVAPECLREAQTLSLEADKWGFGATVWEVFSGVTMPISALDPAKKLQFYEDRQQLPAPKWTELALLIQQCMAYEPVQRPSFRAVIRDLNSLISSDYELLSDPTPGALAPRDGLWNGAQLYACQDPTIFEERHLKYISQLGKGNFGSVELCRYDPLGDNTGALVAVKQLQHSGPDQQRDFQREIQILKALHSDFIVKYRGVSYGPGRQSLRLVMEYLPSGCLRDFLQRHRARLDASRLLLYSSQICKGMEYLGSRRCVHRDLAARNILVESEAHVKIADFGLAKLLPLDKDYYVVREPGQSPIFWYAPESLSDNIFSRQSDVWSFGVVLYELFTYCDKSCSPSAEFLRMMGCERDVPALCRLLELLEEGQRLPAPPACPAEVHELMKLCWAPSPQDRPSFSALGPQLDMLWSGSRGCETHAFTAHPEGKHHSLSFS
Kind of data set: JAK3 enzymatic activity assay (Z'-LYTE Biochemical Kinase Assay, 2 hr preincubation at 4° C.). Particulars: cell free, 1% DMSO, read-out: JAK3 activity cell free (2 hr preincubation at (4° C.) Kj). How it is done:
The assays were performed according to manufacturer's protocols, except that prior to the kinase reaction they were pre-incubated for 2 hours at 4° C., in order to be able to assay for time-dependent inhibition.
In addition to the compound, each 10 μL JAK3 kinase reaction contained 0.43-1.89 ng JAK3 and 2 μM peptide substrate in 50 mM HEPES (pH 7.5), 0.01% BRIJ-35, 10 mM MgCl2 and 1 mM EGTA. The kinase reaction was allowed to proceed for 1 hour.

For data set [3], the system named is Interleukin 4/STAT6-STAT6-bla RA1. In words: Interleukin 4/STAT6-STAT6-bla RA1 inhibition (IL-4-stimulated STAT6 activity in Ramos cells). It counts as cell-based. The following applies: Homo sapiens, Ramos; Table 1, 6th column; read-out: Cell based IL4 stimulation IC50. How it is done:
The inhibition of Interleukin 4/STAT6-STAT6-bla RA1 (activated by IL-4) by several compounds was determined using the Screening Protocol and Assay Conditions (Invitrogen, Madison, Wis.). The assays were performed according to manufacturer's protocols. Example 4, Cell-line Specific Protocols IL-4-stimulated STAT6 activity in Ramos cells for details.
Mechanism-based inhibition assays using compound 7A (Table 1) were performed using GeneBLAzer® Technology (Invitrogen Corporation), according to manufacturer specifications. […] In this state, excitation of the coumarin results in fluorescence resonance energy transfer to the fluorescein moiety and emission of green light. […] Excitation of the coumarin in the presence of Beta-lactamase activity results in a blue fluorescence signal. […]
An activator assay screen was run to obtain the EC80 concentration of the known activator to add in step 3. • 1. […] 4 μL of the EC80 concentration of activator, as determined in an Activator assay, was added to all wells containing compound and known inhibitor to bring the final assay volume to 40 μL. • 4. […] The assay plate was read on a fluorescence plate reader (Tecan Safire) and the data is analyzed. […]
STAT6-bla RA1 cells were thawed. […] The plate was read on a fluorescence plate reader.

On to `O=C(CN1CCOCC1)Nc1cccc(-c2nc(-c3c[nH]c(C(=O)N4CCCC4)c3)cs2)c1` [7A (sample 1), 2-morpholino-N-(3-(4-(5-(pyrrolidine-1-carbonyl)-1H-pyrrol-3-yl)thiazol-2-yl)phenyl)acetamide], for which the solubility at 1 h is 5.9 µM (≈ 2.75 µg/mL) in data set [1] (Solubility (μM) Mean) and below 10 µM in data set [1] (Solubility in PBS).
The matching figures for `Cl.O=C(CN1CCOCC1)Nc1cccc(-c2nc(-c3c[nH]c(C(=O)N4CCCC4)c3)cs2)c1` [9X (sample 2), 2-morpholino-N-(3-(4-(5-(pyrrolidine-1-carbonyl)-1H-pyrrol-3-yl)thiazol-2-yl)phenyl)acetamide hydrochloride salt]: 51.9 µM and 10 to 80 µM.
`O=C(c1cc(-c2csc(-c3ccccc3)n2)c[nH]1)N1CCCC1` [11A]: the Ki in data set [2] is 1100 to 10000 nM. In addition, the IC50 in data set [3] is 110 to 1000 nM.
In the case of `CC(=O)N1CCN(c2ccc(OCC3COC(Cn4ccnc4)(c4ccc(Cl)cc4Cl)O3)cc2)CC1` (stereo not shown) [Ketoconazole, reference compound], the solubility at 1 h in data set [1] (Solubility (μM) Mean) and in data set [1] (Solubility in PBS) was 15.9 µM (≈ 8.45 µg/mL) each time.
On to `CC(C)NCC(O)COc1cccc2ccccc12` (stereo not shown) [Propranolol, reference compound], for which the solubility at 1 h in data set [1] (Solubility (μM) Mean, kinetic solubility, 100 mM phosphate buffer (pH 7.4), test concentration 100 μM, n=2, LC-UV) is above 100 µM; in data set [1] (Solubility in PBS, 100 mM phosphate buffer pH 7.4, test concentration 100 μM) it was around 100 µM (≈ 25.9 µg/mL).
